“And” between values parts separate entries of the source, which are not always exact repeats. Equal values may be shown once. Read-outs that look alike come from different tables or passages of the source.
What was measured:
MitN = MitN (Streptomyces lavendulae, UniProt Q9X5Q8); assay: Enzyme assay and kinetic measurement, aziridine N-methyltransferase (Example 5); format: biochemical, S. lavendulae; details: for conversion of candidate substrate by MitN: in the presence of SAM, TLC/HPLC
Experimental: (§1) pDHS7801 and pDHS7802 were transforned into E. coli BL21 (DE3) strain for the overexpression of MitM and MitN, respectively. E. coli cells were grown at 37° C. in NZCM broth containing 50 μg/ml kanamycin until OD600=0.6. Expression of MitM (or MitN) was induced by adding IPTG to a final concentration of 0.1 mM and reducing the temperature to 25° C. After incubating the culture overnight, cells were harvested, suspended in ice-cooled lysis buffer (50 mM NaH2PO4, pH 8.0; 300 mM NaCl; 10 mM imidazole), and lysed by sonication (6×10 seconds with 10 second pauses at 200-300 W). The supernatant collected by centrifuging the lysate at 10,000 g at 4° C. was used to pass through a Qiagen Ni-NTA column as specified by the manufacturer. The column was […] twice with wash buffer (50 mM NaH2PO4, pH 8.0; 300 mM NaCl; 20 mM imidazole) followed by dissolving the protein in elution buffer (50 mM NaH2PO4, pH 8.0; 300 mM NaCl; 250 mM imidazole). The protein eluted from the column was then precipitated with 60% ammonia sulfate, desalted by passing through a Pharmacia PD-10 column, and dissolved in 50 mM pH7.4 potassium buffer with 1 mM PMSF. The protein concentration was determined using the Bradford Assay with BSA as the standard.
(§2) The reactions were incubated at 30° C. for 30 minutes and were terminated by twice equal volume of ethyl acetate extraction.
(§3) The calculations were carried out using Kcat computer program by fitting the data to a Michaelis-Menton equation by linear regression.

MitM [1] = target: T1, MitM (Streptomyces lavendulae, UniProt Q9X5Q9); assay: as above; format: biochemical, S. lavendulae; details: for conversion of candidate substrate by MitM: in the presence of SAM, TLC/HPLC
Experimental: as §1, §2, §3

MitM [2] = target: T1, MitM; format: biochemical, S. lavendulae; details: Example 4; with SAM
[3] = test system: E. coli strain PJS103 (mct-mrd co-expressing)
Experimental: Construction of mct-mrd co-expression plasmid. […] The fragment contained the mrd gene under the control of the T7 promoter, including transcriptional terminator sequences (rrnB T1) upstream and downstream of mrd.
(§4) The cultures were grown overnight at 37° C. and colony-forming units (CFUs) were determined.

[4] = test system: E. coli strain PJS100 (mrd expressing); assay: MC resistance phenotype of E. coli, plate count; format: cell-based
Excerpt: MC resistance phenotppe of E. coli.

[5] = test system: E. coli BL21 (DE3)::pET17b (vector control)
Experimental: as §4

[6] = test system: E. coli BL21(DE3)::pET17b vector control strain; assay: [^3H]-MC uptake assay; format: cell-based; details: [^3H]-MC 0.022 μg/ml
Experimental: (§5) [^3H]-MC uptake assay of strains PJS102 and PJS103. [^3H]-MC was obtained from Kyowa Hakko Kogyo, Ltd. Uptake studies were performed for whole cells of PJS100, PJS102, PJS103 and E. coli BL21 (DE3)::pT7SC and pET17b. PJS100, PJS102, and PJS103 as well as vectoronly cultures were cultured (37° C.) in 5 ml of NCZYM medium with IPTG added to a final concentration of 1 mM (at approximately 3 hours growth). At 9 hours (late exponential phase), cells were harvested by centrifugation and resuspended in 1 ml NCZYM broth (5×concentration). The concentrated suspension of late-exponential growth phase cells was exposed to [^3H]-MC (59 Ci/mmol) at a final concentration of 0.022 μg/ml (0.0655 nmol). Aliquots (100 μl) were removed at frequent intervals, placed on […] GF/C filters (Whatman International, Maidstone, U.K.) and washed once with 6 ml of 0.85% NaCl poured over the filters under vacuum pressure. Additional aliquots were simultaneously removed for determination of protein content (protein assay kit, Bio-Rad Laboratories, Richmond, Calif.). Radioactivity on the filters was quantified using a Beclkan LS7000 scintillation counter. Results were expressed as nanograins of mitomycin per milligram of cell protein.
(§6) MC uptake by E. coli cells expressing mct, mrd or mct/mrd. Since the deduced amino acid sequence of the mct gene was similar to antibiotic export proteins, reduced accumulation of MC in MCT-expressing cells would be expected. An assay, modeled after experiments used to study tetracycline efflux-mediated resistance in E. coli (Levy and McMurry, 1978), was designed to study the uptake of [^3H]-MC by the susceptible vector control and resistant mct, mrd and mct/mrd expressing E. coli strains.

E. coli strain PJS102 = assay: [^3H]-MC uptake assay; format: cell-based; details: at 5 minutes; [^3H]-MC 0.022 μg/ml
Experimental: as §5, §6

E. coli strain PJS103 = assay: [^3H]-MC uptake assay; format: cell-based
Experimental: as §5, §6

E. coli strain PJS100 = assay: [^3H]-MC uptake assay; format: cell-based; details: at 30 minutes
Experimental: as §5, §6

S. lavendulae wild-type = assay: Resistance of S. lavendulae strains to MC, plate count; format: cell-based, Streptomyces lavendulae
Excerpt: To establish a physiological role for MCT in S. lavendulae, the corresponding gene (mct) was inactivated by insertion of the aphII gene from transposon Tn5 to give pDHS7704.

[7] = test system: E. coli strain PJS102 (mct expressing); assay: MC resistance phenotype of E. coli, plate count; format: cell-based
Experimental: Construction of mct expression plasmid. For the construction of the E. coli expression plasmid NdeI and HindIII sites were introduced at the translational start codon and downstream of the translational stop codon of mct, respectively. […] The PCR was carried out using 2.5 U of Taq polymerase, 0.4 μg of each primer, 1 μg of pDHS7661 DNA as template, […] each of dATP-dGTP-dCTP-dTTP, 1.5 mM MgCl2, and 10 μl of 10×Promega PCR buffer in a total volume of 100 μl .
as §4

[8] = test system: C[S+](CC[C@H](N)C(=O)O)C[C@H]1O[C@@H](n2cnc3c(N)ncnc32)[C@H](O)[C@@H]1O; assay: purified protein, by the assay type
[9] = target: macrocin O-methyltransferase (MOMT) (Streptomyces fradiae, UniProt Q9S4D5); details: read-out: Km for SAM; cited from earlier work
[10] = target: demethylmacrocin O-methyltransferase (DMOMT) (Streptomyces fradiae, UniProt Q9ZHQ4); details: read-out: Km for SAM; cited from earlier work
[11] = test system: 31-O-desmethylimmunomycin O-methyltransferase (DIMT); details: read-out: Km for SAM; cited from earlier work
[12] = target: carminomycin O-methyltransferase (CMT) (Streptomyces sp., UniProt Q55216); details: read-out: Km for SAM; cited from earlier work
[13] = target: 31-O-demethylFK506 O-methyltransferase (FKMT) (Streptomyces tacrolimicus, UniProt P74838); details: read-out: Km for SAM; cited from earlier work

C=C1C2=C(C(=O)C(C)=C(OC)C2=O)N2C[C@H]3[C@H](N3C)[C@]12O (stereo partly shown) [MH, mitomycin H]
conversion of candidate substrate by MitN (MitN): no conversions were detected
conversion of candidate substrate by MitM (MitM [1]): no conversions were detected

COC1=C(C)C(=O)C2=C(C1=O)[C@@H](COC(N)=O)[C@H]1[C@H]3N[C@H]3CN21 [9a-demethoxy mitomycin A]
enzymatic conversion (methylation) by MitM (MitM [2]): methylate specifically the aziridine nitrogen

COC1=C(C)C(=O)C2=C(C1=O)[C@H](COC(N)=O)[C@@]1(O)[C@@H]3[C@H](CN21)N3C (stereo partly shown) [Mitomycin B, mitomycin B]
resistance of strain PJS103 to mitomycin B [3]: high-level resistance
Plate count CFU/ml ([3]; Mitomycin B tested at a concentration of 15 μg/ml): >10^7d CFU/ml
Plate count CFU/ml ([4]; Mitomycin B tested at a concentration of 1.0 μg/ml): >10^7b CFU/ml
conversion of candidate substrate by MitN (MitN): no conversions were detected
conversion of candidate substrate by MitM (MitM [1]): no conversions were detected
enzymatic conversion (methylation) by MitM (MitM [2]): no conversion products were observed

CO[C@@]12[C@H](COC(N)=O)C3=C(C(=O)C(C)=C(N)C3=O)N1C[C@@H]1N[C@@H]12 [MC, mitomycin C]
Plate count CFU/ml ([3]; MC 80 μg/ml): 1.4 × 10^5 CFU/ml
Plate count CFU/ml ([3]; MC 100 μg/ml): 9.6 × 10^3 CFU/ml
Plate count CFU/ml ([3]; MC 150 μg/ml): 3.0 × 10^1 CFU/ml
Plate count CFU/ml ([5]; MC 0.01 μg/ml): >10^7 CFU/ml
Plate count CFU/ml ([5]; MC 0.1 μg/ml): 7.3 × 10^3 CFU/ml
Plate count CFU/ml ([5]; MC 0.5 μg/ml): 3.2 × 10^2 CFU/ml
Plate count CFU/ml ([5]; MC 1.0 μg/ml): 0.0 CFU/ml
Plate count CFU/ml ([4]; MC 1.0 μg/ml): 3.3 × 10^6 CFU/ml
Plate count CFU/ml ([4]; MC 5.0 μg/ml): 2.7 × 10^6 CFU/ml
Plate count CFU/ml ([4]; MC 10 μg/ml): 6.1 × 10^5 CFU/ml
Plate count CFU/ml ([4]; MC 20 μg/ml): 2.5 × 10^5 CFU/ml
Plate count CFU/ml ([4]; MC 30 μg/ml): 5.0 × 10^2 CFU/ml
Plate count CFU/ml ([4]; MC 60 μg/ml): 0.0 CFU/ml
time at which MC accumulation reaches maximum level [6]: 5 min
MC accumulation as % of the susceptible control (E. coli strain PJS102): 25%
MC accumulation as % of E. coli cells bearing vector alone (E. coli strain PJS103; at 5 minutes, [^3H]-MC 0.022 μg/ml): 35%
MC accumulation, % greater than strain PJS102 (E. coli strain PJS103; over the course of the experiment): about 23%
MC accumulation, % higher than the drug-sensitive vector control (E. coli strain PJS100): 42%
conversion of candidate substrate by MitN (MitN): no conversions were detected
conversion of candidate substrate by MitM (MitM [1]): no conversions were detected
enzymatic conversion (methylation) by MitM (MitM [2]): no conversion products were observed
MC resistance level of the wild-type S. lavendulae (S. lavendulae wild-type): > 150 μg(ml
Plate count CFU/ml (S. lavendulae wild-type; MC 40 μg/ml): 5.3 × 10^3 CFU/ml
Plate count CFU/ml (S. lavendulae wild-type; MC 100 μg/ml): 2.0 × 10^3 CFU/ml
Plate count CFU/ml ([7]; MC 0.5 μg/ml): 2.1 × 10^5 CFU/ml
Plate count CFU/ml ([7]; MC 1.0 μg/ml): 5.9 × 10^4 CFU/ml
Plate count CFU/ml ([7]; MC 2.5 μg/ml): 2.0 × 10^2 CFU/ml
Plate count CFU/ml ([7]; MC 5.0 μg/ml): 0.0 CFU/ml

COC1=C(C)C(=O)C2=C(C1=O)[C@@H](COC(N)=O)[C@@]1(OC)[C@H]3N[C@H]3CN21 [MA, mitomycin A]
Vmax for MA (MitN; MitN, pH 7.4, SAM fixed 200 μM): 75.9 ± 2.4 nmol/mg/min
conversion of candidate substrate by MitN (MitN): new product was formed
Km (MitN; read-out: Km for MA, MitN, pH 7.4, SAM fixed 200 μM, MA 30-300 μM): 94.7 µM and 95 µM
Vmax for MA (MitM [1]; MitM, pH 7.4, SAM fixed 200 μM): 57.4 ± 4.2 nmol/mg/min
conversion of candidate substrate by MitM (MitM [1]): new product was formed
Km (MitM [1]; read-out: Km for MA, MitM, pH 7.4, SAM fixed 200 μM, MA 30-300 μM): 169 µM
enzymatic conversion (methylation) by MitM (MitM [2]): methylated at the aziridine nitrogen

MitN (Streptomyces lavendulae)
Km ([8]; other: MitN, pH 7.4, MA fixed 200 μM, SAM 40-400 μM, pH 7.4): 86.6 µM and 87 µM

mitomycin G
enzymatic conversion (methylation) by MitM (MitM [2]): no conversion products were observed

MitM (Streptomyces lavendulae)
Km ([8]; other: MitM, 400 μM mitomycin A, pH 7.0): 30 µM
Km ([8]; other: MitM, pH 7.4, MA fixed 200 μM, SAM 40-400 μM, pH 7.4): 22.8 µM and 23 µM

C[S+](CC[C@H](N)C(=O)O)C[C@H]1O[C@@H](n2cnc3c(N)ncnc32)[C@H](O)[C@@H]1O (stereo partly drawn) [SAM, S-adenosyl-L-methionine]
Km [9]: 23 µM
Km [10]: 111 µM
Km [11]: 13 µM
Vmax for SAM (MitN; MitN, pH 7.4, MA fixed 200 μM): 49.4 ± 5.3 nmol/mg/min
Vmax for SAM (MitM [1]; MitM, pH 7.4, MA fixed 200 μM): 29.8 ± 4.5 nmol/mg/min
Km [12]: 25 µM
Km [13]: 28 µM

CC1=C(N)C(=O)C2=C(C1=O)N1C[C@H]3[C@H](N3C)[C@]1(O)[C@H]2COC(N)=O (stereo partly shown) [MD, mitomycin D]
conversion of candidate substrate by MitN (MitN): no conversions were detected
conversion of candidate substrate by MitM (MitM [1]): no conversions were detected
enzymatic conversion (methylation) by MitM (MitM [2]): no conversion products were observed
